Measured values: patent US8101605B2, “SHIP1 modulators and methods related thereto” (Aquinox Pharmaceuticals Inc., priority 2009, dated 2012)

What was measured:
His-hSHIP1 enzyme = target: T1, His-hSHIP1 enzyme (Homo sapiens, UniProt Q92835); assay: His-hSHIP1 phosphatase activity assay (IP4 substrate, Biomol Green); type: biochemical; conditions: percentage increase relative to background; concentrations ≦300 μM
T1 sequence (Q92835 1-1189): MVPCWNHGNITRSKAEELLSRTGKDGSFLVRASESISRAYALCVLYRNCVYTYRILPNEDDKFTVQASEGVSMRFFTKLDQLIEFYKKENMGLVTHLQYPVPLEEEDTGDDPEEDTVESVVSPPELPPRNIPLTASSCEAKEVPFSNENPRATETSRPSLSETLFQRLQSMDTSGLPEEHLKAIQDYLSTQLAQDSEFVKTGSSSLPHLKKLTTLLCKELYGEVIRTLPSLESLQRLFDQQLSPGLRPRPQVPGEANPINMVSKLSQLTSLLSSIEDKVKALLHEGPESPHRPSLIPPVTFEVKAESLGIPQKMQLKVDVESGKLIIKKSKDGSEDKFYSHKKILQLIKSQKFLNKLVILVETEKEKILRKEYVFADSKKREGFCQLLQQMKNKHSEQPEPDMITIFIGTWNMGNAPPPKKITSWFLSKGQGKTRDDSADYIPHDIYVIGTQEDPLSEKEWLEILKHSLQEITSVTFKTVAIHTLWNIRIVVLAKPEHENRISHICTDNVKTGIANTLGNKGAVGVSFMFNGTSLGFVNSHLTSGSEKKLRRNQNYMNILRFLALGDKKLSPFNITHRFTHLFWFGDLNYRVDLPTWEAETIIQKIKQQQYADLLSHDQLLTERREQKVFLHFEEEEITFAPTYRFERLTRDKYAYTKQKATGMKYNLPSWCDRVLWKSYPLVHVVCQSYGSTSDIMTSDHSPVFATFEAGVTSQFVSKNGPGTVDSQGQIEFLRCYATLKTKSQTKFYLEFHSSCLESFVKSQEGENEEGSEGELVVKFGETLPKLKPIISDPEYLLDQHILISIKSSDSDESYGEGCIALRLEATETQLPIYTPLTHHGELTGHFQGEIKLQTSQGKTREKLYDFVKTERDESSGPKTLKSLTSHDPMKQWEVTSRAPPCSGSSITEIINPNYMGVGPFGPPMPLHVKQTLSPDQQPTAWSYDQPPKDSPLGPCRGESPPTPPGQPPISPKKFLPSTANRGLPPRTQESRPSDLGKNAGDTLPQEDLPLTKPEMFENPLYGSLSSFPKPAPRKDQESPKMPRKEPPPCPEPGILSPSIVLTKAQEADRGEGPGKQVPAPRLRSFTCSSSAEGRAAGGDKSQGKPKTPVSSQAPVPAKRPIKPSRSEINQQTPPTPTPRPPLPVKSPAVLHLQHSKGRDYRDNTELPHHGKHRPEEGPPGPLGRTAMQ
Method in brief: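 His-hSHIP1 (15–20 ng) was incubated with IP4 (50 μM final) and compound (0–300 μM final, from 10% ethanol solutions) in 20 mM Tris-HCl, 10 mM MgCl2 pH 7.5, 0.02% Tween 20 for 15 min at 37 °C. Released phosphate was read with Biomol Green at 650 nm. Activation is % increase over background, scored + (<50%), ++ (≥50% but <65%), +++ (≥65%).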

[1] = test system: carrageenan-induced paw edema; assay: Carrageenan paw edema in mice; type: in vivo; conditions: oral, doses less than 30 mg/kg, 4 hours after carrageenan
Description: The activity of representative compounds on carrageenan paw edema in mice was evaluated according to the procedures disclosed by Winter et al., Proc Soc Exp Biol Med 111, 544-547, 1962, which is incorporated herein by reference in its entirety. To induce edema in the paw, test compounds were administered orally one hour before intraplantar injection of the right hind paw with carrageenan (50 μL of 1% suspension). Hind paw edema, as a measure of inflammation, was recorded using a plethysmometer (Ugo Basile, Italy) 4 hours after λ-carrageenan administration.

Row | Scoring: percent (%) activation of His-hSHIP1 enzyme (His-hSHIP1 enzyme) | Structure (SMILES) | inhibition of carrageenan-induced paw edema [1] [%]
1 | +++ (≧65%) | CC1(C)CCC[C@]2(C)[C@H]3CS(=O)(=O)c4cc(O)cc(O)c4[C@]3(C)CC[C@@H]12 [Compound No. 28, (1R,10R,11S,16S)-3,5-dihydroxy-1,11,15,15-tetramethyl-8-thiatetracyclo[8.8.0.0^2,7.0^11,16]octadeca-2,4,6-triene-8,8-dione] | 
2 | + (<50%) | Cc1cc(O)cc2c1[C@]1(C)CC[C@H]3C(C)(C)CCC[C@]3(C)[C@H]1CO2 [Compound No. 6, (1R,10R,11S,16S)-1,3,11,15,15-pentamethyl-8-oxatetracyclo[8.8.0.0^2,7.0^11,16]octadeca-2,4,6-trien-5-ol] | 24
